From patent US7029886B1, “Enzymatic substrate, synthesis method and uses” (Bio Merieux, priority 1999, dated 2006)
Marks after values point to notes of the source that are not given here.

Columns and labels:
[1] = system: E. coli (NCTC, 10418); test: CBR-gal in Columbia agar (solid medium); format: cell-based; conditions: 2, 6, 10 and 20 mg/100 ml, 37° C. overnight
Method: (§1) The CBR-gal substrate is incorporated into a Columbia agar at the following concentrations: 2, 6, 10 and 20 mg/100 ml, and the medium thus prepared is distributed into dishes. Each dish is inoculated with the following organisms: E. coli (NCTC, 10418), K. pneumoniae (NCTC, 10896), P. rettgeri (NCTC, 7475), E. cloacae (NCTC, 11936), S. marcescens (NCTC, 10211) and S. typhimurium (NCTC, 74). IPTG is incorporated into all these media, at a concentration of 3 mg per 100 ml of Columbia agar. All the dishes are incubated at 37° C. overnight.

[2] = system: K. pneumoniae (NCTC, 10896); test: CBR-gal in Columbia agar (solid medium); format: cell-based; conditions: 2, 6, 10 and 20 mg/100 ml, 37° C. overnight
Method: as §1

[3] = system: E. cloacae (NCTC, 11936); test: CBR-gal in Columbia agar (solid medium); format: cell-based; conditions: 2, 6, 10 and 20 mg/100 ml, 37° C. overnight
Method: as §1

[4] = system: S. marcescens (NCTC, 10211); test: CBR-gal in Columbia agar (solid medium); format: cell-based; conditions: 2, 6, 10 and 20 mg/100 ml, 37° C. overnight
Method: as §1

[5] = system: E. coli, K. pneumoniae, P. rettgeri, E. cloacae, S. marcescens and S. typhimurium; format: cell-based; conditions: Columbia agar, 37° C. overnight
Method: as §1

[6] = system: E. coli (NCTC, 10418); test: CBR-gal in a liquid medium, pink coloration over time (Table V); format: cell-based; parameters: key: — signifies a lack of coloration, even after 24 hours
Method: (§2) The CBR-gal substrate is tested in a liquid medium, at various concentrations from 0.5 mg/ml to 0.0078 mg/ml. The liquid reaction medium into which the substrate is incorporated is composed of a phosphate buffer, pH 7.4, containing 0.5% of nutrient broth and 0.5% of NaCl. 30 microliters/ml of IPTG are added to the medium for all the substrate concentrations. The strains tested are E. coli (NCTC, 10418), K. pneumoniae (NCTC, 10896), P. rettgeri (NCTC, 7475), E. cloacae (NCTC, 11936), S. marcescens (NCTC, 10211) and S. typhimurium (NCTC, 74), with an inoculum of 0.5 McFarland.

[7] = system: K. pneumoniae (NCTC, 10896); test: as above; format: cell-based; parameters: key: — signifies a lack of coloration, even after 24 hours
Method: as §2

[8] = system: P. rettgeri (NCTC, 7475); test: as above; format: cell-based; parameters: key: — signifies a lack of coloration, even after 24 hours
Method: as §2

[9] = system: E. cloacae (NCTC, 11936); test: as above; format: cell-based; parameters: key: — signifies a lack of coloration, even after 24 hours
Method: as §2

[10] = system: S. marcescens (NCTC, 10211); test: as above; format: cell-based; parameters: key: — signifies a lack of coloration, even after 24 hours
Method: as §2

[11] = system: S. typhimurium (NCTC, 74); test: as above; format: cell-based; parameters: key: — signifies a lack of coloration, even after 24 hours
Method: as §2

[12] = system: E. coli 206; test: Influence of the incubation atmosphere on revelation of β-D-galactosidase (Table IV)
[13] = system: E. coli 115; test: as above
[14] = system: E. faecium 255; test: as above
[15] = system: S. marcescens 042; test: as above; conditions: 48 H
[16] = system: E. cloacae 061; test: as above

O=c1cc2oc3cc(OC4OC(CO)C(O)C(O)C4O)c(Cl)cc3nc-2c2ccccc12 [CBR-gal, 8-chloro-1,2-benzoresorufin-β-D-galactoside]
4 h: time until pink coloration ([6]; CBR-gal substrate 0.0625 mg/ml) | time until pink coloration ([6]; CBR-gal substrate 0.125 mg/ml) | time until pink coloration ([7]; CBR-gal substrate 0.0625 mg/ml) | time until pink coloration ([7]; CBR-gal substrate 0.125 mg/ml) | time until pink coloration ([9]; CBR-gal substrate 0.0625 mg/ml) | time until pink coloration ([9]; CBR-gal substrate 0.125 mg/ml)
—: time until pink coloration ([6]; CBR-gal substrate 0.0078 mg/ml) | time until pink coloration ([6]; CBR-gal substrate 0.0156 mg/ml) | time until pink coloration ([7]; CBR-gal substrate 0.0078 mg/ml) | time until pink coloration ([7]; CBR-gal substrate 0.0156 mg/ml) | time until pink coloration ([8]; CBR-gal substrate 0.0078 mg/ml) | time until pink coloration ([8]; CBR-gal substrate 0.0156 mg/ml) | time until pink coloration ([8]; CBR-gal substrate 0.0313 mg/ml) | time until pink coloration ([8]; CBR-gal substrate 0.0625 mg/ml) | time until pink coloration ([8]; CBR-gal substrate 0.125 mg/ml) | time until pink coloration ([8]; CBR-gal substrate 0.25 mg/ml) | time until pink coloration ([8]; CBR-gal substrate 0.5 mg/ml) | time until pink coloration ([9]; CBR-gal substrate 0.0078 mg/ml) | time until pink coloration ([9]; CBR-gal substrate 0.0156 mg/ml) | time until pink coloration ([10]; CBR-gal substrate 0.0078 mg/ml) | time until pink coloration ([10]; CBR-gal substrate 0.0156 mg/ml) | time until pink coloration ([11]; CBR-gal substrate 0.0078 mg/ml) | time until pink coloration ([11]; CBR-gal substrate 0.0156 mg/ml) | time until pink coloration ([11]; CBR-gal substrate 0.0313 mg/ml) | time until pink coloration ([11]; CBR-gal substrate 0.0625 mg/ml) | time until pink coloration ([11]; CBR-gal substrate 0.125 mg/ml) | time until pink coloration ([11]; CBR-gal substrate 0.25 mg/ml) | time until pink coloration ([11]; CBR-gal substrate 0.5 mg/ml)
around 10 mg/100 ml: optimum concentration to obtain a clearly visible pink coloration without any background noise [5]
2* hours: time until pink coloration ([6]; CBR-gal substrate 0.5 mg/ml)
2 h: time until pink coloration ([6]; CBR-gal substrate 0.25 mg/ml) | time until pink coloration ([7]; CBR-gal substrate 0.25 mg/ml) | time until pink coloration ([7]; CBR-gal substrate 0.5 mg/ml) | time until pink coloration ([9]; CBR-gal substrate 0.25 mg/ml) | time until pink coloration ([9]; CBR-gal substrate 0.5 mg/ml)
24 h: time until pink coloration ([6]; CBR-gal substrate 0.0313 mg/ml) | time until pink coloration ([7]; CBR-gal substrate 0.0313 mg/ml) | time until pink coloration ([9]; CBR-gal substrate 0.0313 mg/ml) | time until pink coloration ([10]; CBR-gal substrate 0.0313 mg/ml) | time until pink coloration ([10]; CBR-gal substrate 0.0625 mg/ml) | time until pink coloration ([10]; CBR-gal substrate 0.125 mg/ml) | time until pink coloration ([10]; CBR-gal substrate 0.25 mg/ml) | time until pink coloration ([10]; CBR-gal substrate 0.5 mg/ml)
pink coloration: coloration of the bacterial colony [1] | coloration of the bacterial colony [2] | coloration of the bacterial colony [3] | coloration of the bacterial colony [4]

OC[C@H]1O[C@@H](Oc2c[nH]c3ccc(Br)c(Cl)c23)[C@H](O)[C@@H](O)[C@H]1O [X-Gal, reference compound]
1: intensity of coloration (arbitrary scale based on a visual observation) ([12]; 24 H, ANA (anaerobiosis)) | intensity of coloration (arbitrary scale based on a visual observation) ([12]; 24 H, MAP (microaerophily)) | intensity of coloration (arbitrary scale based on a visual observation) ([12]; 48 H, ANA (anaerobiosis)) | intensity of coloration (arbitrary scale based on a visual observation) ([12]; 48 H, MAP (microaerophily)) | intensity of coloration (arbitrary scale based on a visual observation) ([13]; 48 H, ANA (anaerobiosis)) | intensity of coloration (arbitrary scale based on a visual observation) ([14]; 24 H, AE (aerobiosis)) | intensity of coloration (arbitrary scale based on a visual observation) ([14]; 48 H, CO2) | intensity of coloration (arbitrary scale based on a visual observation) ([14]; 48 H, MAP (microaerophily)) | intensity of coloration (arbitrary scale based on a visual observation) ([15]; AE (aerobiosis)) | intensity of coloration (arbitrary scale based on a visual observation) ([15]; MAP (microaerophily)) | intensity of coloration (arbitrary scale based on a visual observation) ([16]; 24 H, MAP (microaerophily)) | intensity of coloration (arbitrary scale based on a visual observation) ([16]; 48 H, ANA (anaerobiosis)) | intensity of coloration (arbitrary scale based on a visual observation) ([16]; 48 H, MAP (microaerophily))
3*: intensity of coloration (arbitrary scale based on a visual observation) ([13]; 24 H, AE (aerobiosis))
3: intensity of coloration (arbitrary scale based on a visual observation) ([12]; 24 H, AE (aerobiosis)) | intensity of coloration (arbitrary scale based on a visual observation) ([12]; 24 H, CO2) | intensity of coloration (arbitrary scale based on a visual observation) ([12]; 48 H, AE (aerobiosis)) | intensity of coloration (arbitrary scale based on a visual observation) ([12]; 48 H, CO2) | intensity of coloration (arbitrary scale based on a visual observation) ([13]; 48 H, AE (aerobiosis)) | intensity of coloration (arbitrary scale based on a visual observation) ([14]; 48 H, AE (aerobiosis))
2: intensity of coloration (arbitrary scale based on a visual observation) ([13]; 24 H, CO2) | intensity of coloration (arbitrary scale based on a visual observation) ([13]; 24 H, MAP (microaerophily)) | intensity of coloration (arbitrary scale based on a visual observation) ([13]; 48 H, CO2) | intensity of coloration (arbitrary scale based on a visual observation) ([13]; 48 H, MAP (microaerophily)) | intensity of coloration (arbitrary scale based on a visual observation) ([15]; CO2) | intensity of coloration (arbitrary scale based on a visual observation) ([16]; 24 H, AE (aerobiosis)) | intensity of coloration (arbitrary scale based on a visual observation) ([16]; 24 H, CO2) | intensity of coloration (arbitrary scale based on a visual observation) ([16]; 48 H, AE (aerobiosis)) | intensity of coloration (arbitrary scale based on a visual observation) ([16]; 48 H, CO2)
